Assay results from publication doi:10.1101/2025.03.13.643086, “Granzyme-targeting quenched activity-based probes for assessing tumor response to immunotherapy” (bioRxiv, 2025).

Experiments:
[1] = Hydrolytic stability of qABPs in media (Cy5 fluorescence over time); type: physicochemical; conditions: cell culture media (10% FBS), 24 h incubation
Experimental: Supplementary Figure 1. E-2B-0B-2Quenching effect and stability of qABP 10. (A) The fluorescence for each probe (10 µM) was measured at Ex/Em: 640/670 nm. (B) The stability of qABP 10 in PBS and different cell culture media (supplemented with 10% FBS) was measured by monitoring the production of Cy5 fluorescence signal over time.
11 CO2- In-gel fluorescence: Cy5
Supplementary Figure 2. (A) Chemical structure of compound 11. (B) hGzmB labeling assay with 11. Recombinant human active GzmB (50 nM) was incubated with 8 or 11 (500 nM) for 1 h.
Protein samples were analyzed by SDS-PAGE and in-gel fluorescence scanning for Cy5 signal.
(1 picture or pasted object on this page, not shown here)
PBS RIPA Myelocult 17 In-gel fluorescence:
Supplementary Figure 8. Activity-based GzmA profiling. (A) Left: Dose-dependent labeling of GzmA with 16 and 17 in NK-92 cell lysates. Middle, Right: GzmA selective labeling in different cell lysates with 17 (Middle) and 16 (Right) (50 nM, 1 h, 37 °C). Briefly, cell lysates were prepared with RIPA lysis buffer, and 20 µg of proteins were incubated with 50 nM of 16 or 17 for 1 h at 37 °C and analyzed by SDS-PAGE. […]
dependent in situ labeling of GzmA in NK-92 cells with 14-17 (2 h, 37 °C). […] After denaturing with 4X SDS-reducing buffer, 20 µg of proteins were analyzed by SDS-PAGE and in-gel fluorescence scanning for Cy5 signal. […]

[2] = tested on: GzmB activity in 4T1 tumors; type: in vivo, mouse
Experimental: Figure 5. In vivo imaging of GzmB activity in mouse tumor models. (A) Schematic illustration of the timeline of immunotherapy and real-time NIRF-imaging. (B) Measurement of tumor growth comparing immunotherapy (ICB combination)-treated vs. untreated mice. Data points are shown as mean with SD. (C) Whole animal 2D fluorescence images of immunotherapy-treated mice obtained after 2, 4, 8 and 24 h post-injection at Ex/Em: 640/680 nm. […] (D) Quantification of in vivo NIRF signals in the tumors. […] (F) Quantification of ex vivo NIRF signals in the organs (normalized to spleen). […] (G) Immunoblotting analysis of GzmB expression in tumor homogenates. Briefly, pieces of tumors were transferred to a flask containing 1 mL RIPA lysis buffer on ice and constantly grinded for 2 min. Homogenates were collected by centrifugation and 20 μg of proteins were analyzed by SDS-PAGE and immunoblotting. (H) Representative confocal microscopy images of tumor sections stained with DAPI (blue) and CD8α (green)/GzmB (yellow) antibodies and Cy5 (red) detection. (I) Fraction (%) of CD8+ cells in the tumors analyzed by flow cytometry. (J) Mean fluorescence intensity (MFI) of Cy5 signals determined by flow cytometry after dissociated tumors were treated with 10 (5 μM) for 2 h at 37 °C.
3-5 mice/group. For all studies, mice were monitored by daily observation and serial tumor measurements and body weights.
Mice were treated with 20 mg/kg BEC i.v., 10 mg/kg anti-PD1 i.p., 5 mg/kg anti-CTLA4 i.p. or a combination of 10 mg/kg anti-PD-1 and 5 mg/kg anti-CTLA4. All the treatments were administered into living mice bearing 4T1 tumor every three days for three times (q3dx3). Dosing was administered at 0.01 ml/g body weight. On day 9 post-treatment, the mice were injected with 2 nmol/g GzmB qABP i.v., followed by fluorescence imaging at 2, 4, 8, and 24 h. Following the last imaging time point, mice were euthanized, and tissues were collected for ex vivo imaging.
E. In vivo and ex vivo fluorescence imaging (FLI)
All fluorescence imaging (FLI) were performed using Xenogen IVIS Spectrum (Revvity Health Sciences, Inc., Hopkinton, Massachusetts), which was previously owned by PerkinElmer. Prior to in vivo or ex vivo FLI, quality control of the IVIS system was performed with XFM-2X fluorescent phantom mouse (Revvity Health Sciences, Inc., Hopkinton, Massachusetts). The total radiant efficiency of AF680 phantom was 1.44 x 109 ± 5.7 x 107 at 40% threshold for the entire study.
Both in vivo and ex vivo FLI of mice including dye phantom was performed with Ex/Em: 640/680 nm. The wavelength difference between excitation and emission was large enough to prevent signal contamination by mixing. The maximum exposure time was fixed at 120 seconds to avoid background noise. In vivo imaging used 8 binning, 2 f-stop, and 1.5 cm sample height, whereas ex vivo imaging used 8 binning, 2–4 f-stop, and 0.5 cm sample height. The quantified data are presented as radiant efficiency or normalized radiant efficiency by area. […]
Fixed/Permeabilized […]
cells were resuspended 100 µL 1x intracellular staining perm wash buffer and incubated with FITC-conjugated CD8 antibody (BioLegend #100706) at 0 °C for 1 h. After centrifugation, cell pellets were washed with 1x intracellular staining perm wash buffer (twice) and resuspended in the appropriate amount of cell staining buffer (BioLegend # 420201) and analyzed with flow […]

CC[C@H](C)[C@H](NC(=O)CCCCCN1/C(=C/C=C/C=C/C2=[N+](CC)c3ccc(S(=O)(=O)O)cc3C2(C)C)C(C)(C)c2cc(S(=O)(=O)O)ccc21)C(=O)N[C@@H](CCC(=O)O)C(=O)N1CCC[C@H]1C(=O)NC(CS(=O)(=O)O)P(=O)(Oc1ccc(CCNC(=O)C2CCN(S(=O)(=O)c3ccccc3-c3c4ccc(=[N+]5CCc6ccccc65)cc-4oc4cc(N5CCc6ccccc65)ccc34)CC2)cc1)c1ccccc1 (stereo partly drawn) [Compound 10, Cy5-IEPCya^PhP-QSY21]
hydrolyzed product [1]: less than 50%
in vivo NIRF signal at 2 h, mouse #61 (brightest) ([2]; 12.5 nmol/100 μL i.v., 2 h post-injection, ICB combination-treated mouse): 7.26x10^9 p s^−1 cm^−2 sr^−1
time post-injection of brightest NIRF signal within tumors ([2]; 50 nmol i.v., imaged at 2, 4, 8 and 24 h): 2 h
tumor-to-background ratio (TBR), ex vivo, normalized to spleen, mouse #57 ([2]; 50 nmol i.v., organs harvested 24 h post-injection): 15.18
in vivo fluorescence signal in tumor at 2 h, mouse #57 (highest) ([2]; 50 nmol/100 μL i.v., 2 h post-injection, ICB combination-treated mouse): 4.02x10^10 p s^−1 cm^−2 sr^−1
clearance route of excess probe ([2]; second highest signals in bladder (2 h in vivo) and kidneys (24 h ex vivo)): cleared through the renal pathway
